Measurements published in ChEMBL document CHEMBL4428074, “The discovery of 2,5-isomers of triazole-pyrrolopyrimidine as selective Janus kinase 2 (JAK2) inhibitors versus JAK1 and JAK3” (Bioorg Med Chem, 2016).

How the values were obtained:
HEL 92.1.7 [1] = test: cells; type: functional; details: Homo sapiens, HEL 92.1.7, 72 h
Description: Antiproliferative activity against HEL 92.1.7 cells assessed as viable cells at 10 uM measured after 3 days by WST-1 assay

[2] = target: T1, Tyrosine-protein kinase JAK3 (Homo sapiens, UniProt P52333)
T1 sequence (P52333 whole entry): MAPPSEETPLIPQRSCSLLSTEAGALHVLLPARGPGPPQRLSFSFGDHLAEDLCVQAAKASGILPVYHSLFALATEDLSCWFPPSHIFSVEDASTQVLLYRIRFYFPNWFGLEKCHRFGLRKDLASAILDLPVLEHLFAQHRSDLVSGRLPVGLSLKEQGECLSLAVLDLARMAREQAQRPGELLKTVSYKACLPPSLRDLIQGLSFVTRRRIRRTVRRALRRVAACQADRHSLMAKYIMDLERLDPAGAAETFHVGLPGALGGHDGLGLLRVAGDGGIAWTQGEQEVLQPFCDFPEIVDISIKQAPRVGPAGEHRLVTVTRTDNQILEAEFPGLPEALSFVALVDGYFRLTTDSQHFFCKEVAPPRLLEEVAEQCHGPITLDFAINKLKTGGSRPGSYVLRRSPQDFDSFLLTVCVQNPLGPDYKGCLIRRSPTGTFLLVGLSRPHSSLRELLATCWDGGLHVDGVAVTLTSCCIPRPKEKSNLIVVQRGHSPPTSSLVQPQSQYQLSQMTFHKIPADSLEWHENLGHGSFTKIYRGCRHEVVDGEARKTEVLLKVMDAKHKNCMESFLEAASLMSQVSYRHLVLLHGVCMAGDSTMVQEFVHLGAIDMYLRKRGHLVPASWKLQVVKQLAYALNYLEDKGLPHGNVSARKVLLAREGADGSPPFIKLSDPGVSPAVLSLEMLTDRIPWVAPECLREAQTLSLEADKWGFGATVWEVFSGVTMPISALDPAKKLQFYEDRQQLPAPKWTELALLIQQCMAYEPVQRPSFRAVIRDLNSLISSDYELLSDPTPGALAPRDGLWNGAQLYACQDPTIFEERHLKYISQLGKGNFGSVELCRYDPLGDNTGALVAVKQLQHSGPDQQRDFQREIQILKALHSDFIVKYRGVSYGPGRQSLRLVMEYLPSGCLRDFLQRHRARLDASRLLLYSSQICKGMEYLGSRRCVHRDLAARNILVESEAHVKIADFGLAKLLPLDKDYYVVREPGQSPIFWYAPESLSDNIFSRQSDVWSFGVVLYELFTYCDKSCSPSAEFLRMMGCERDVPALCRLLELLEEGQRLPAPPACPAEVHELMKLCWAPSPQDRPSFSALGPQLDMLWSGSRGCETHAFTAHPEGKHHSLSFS
Description: Inhibition of JAK3 (unknown origin) measured after 1 hr in presence of ATP by TR-FRET assay

[3] = target: Tyrosine-protein kinase JAK1 (Homo sapiens, UniProt P23458)
Sequence of Tyrosine-protein kinase JAK1 (P23458 whole entry): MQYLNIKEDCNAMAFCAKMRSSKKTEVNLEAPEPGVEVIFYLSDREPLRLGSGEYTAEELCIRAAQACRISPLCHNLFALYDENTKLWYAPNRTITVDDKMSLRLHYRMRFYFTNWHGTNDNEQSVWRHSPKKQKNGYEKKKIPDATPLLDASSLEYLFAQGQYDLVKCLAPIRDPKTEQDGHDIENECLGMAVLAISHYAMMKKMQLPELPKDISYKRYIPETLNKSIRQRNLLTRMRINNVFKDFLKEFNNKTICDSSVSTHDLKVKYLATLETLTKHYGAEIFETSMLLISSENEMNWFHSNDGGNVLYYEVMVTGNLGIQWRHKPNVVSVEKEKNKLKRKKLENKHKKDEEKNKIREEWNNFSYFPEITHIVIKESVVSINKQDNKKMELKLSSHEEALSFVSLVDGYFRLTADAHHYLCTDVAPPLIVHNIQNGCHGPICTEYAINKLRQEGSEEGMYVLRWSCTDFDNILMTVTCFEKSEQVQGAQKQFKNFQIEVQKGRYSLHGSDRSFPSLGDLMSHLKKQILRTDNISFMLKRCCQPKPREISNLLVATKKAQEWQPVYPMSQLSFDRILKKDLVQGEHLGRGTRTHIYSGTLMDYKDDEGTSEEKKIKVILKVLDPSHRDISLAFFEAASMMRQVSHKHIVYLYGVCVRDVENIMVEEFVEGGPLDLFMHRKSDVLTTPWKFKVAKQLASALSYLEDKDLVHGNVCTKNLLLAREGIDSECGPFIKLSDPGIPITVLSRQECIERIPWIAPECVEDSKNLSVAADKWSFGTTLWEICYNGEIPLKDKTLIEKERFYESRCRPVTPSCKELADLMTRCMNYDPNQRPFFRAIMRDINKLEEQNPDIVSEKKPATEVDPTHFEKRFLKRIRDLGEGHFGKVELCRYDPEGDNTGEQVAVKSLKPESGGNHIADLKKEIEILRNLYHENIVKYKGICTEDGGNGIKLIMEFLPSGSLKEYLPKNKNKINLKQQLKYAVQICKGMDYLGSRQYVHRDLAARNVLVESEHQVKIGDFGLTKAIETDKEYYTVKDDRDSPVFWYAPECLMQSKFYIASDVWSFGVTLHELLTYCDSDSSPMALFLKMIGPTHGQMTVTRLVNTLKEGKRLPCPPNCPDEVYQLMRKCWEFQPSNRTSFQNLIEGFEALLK

HEL 92.1.7 [4] = test: cells; details: Homo sapiens, HEL 92.1.7, 72 h
Description: Antiproliferative activity against HEL 92.1.7 cells assessed as viable cells measured after 3 days by WST-1 assay

HEL 92.1.7 [5] = type: functional, Homo sapiens
Description: Antiproliferative activity against HEL 92.1.7 cells assessed as inhibition of cell growth

HCC827 = type: functional, Homo sapiens; details: at 30 µM
Description: Cytotoxicity against wild-type human HCC827 cells at 30 uM measured after 72 hrs by MTT assay

SMILES	inhibition at 10 µM (HEL 92.1.7 [1])	IC50 [3]	also measured
Cc1nn(CCCC#N)nc1-c1ncnc2[nH]ccc12	65.3%	72 nM	IC50 [2]: 1760 nM
Cc1nn(CCCCCC#N)nc1-c1ncnc2[nH]ccc12	–	186 nM	–
Cc1nn(CC2CCC2)nc1-c1ncnc2[nH]ccc12	49.8%	–	–
C=C(C)Cn1nc(C)c(-c2ncnc3[nH]ccc23)n1	52.7%	142 nM	–
Cc1nn(CCCCC#N)nc1-c1ncnc2[nH]ccc12	41.3%	138 nM	–
Cc1nn(CC2CCCC2)nc1-c1ncnc2[nH]ccc12	64.1%	–	–
Cc1nn(CCCC(F)(F)F)nc1-c1ncnc2[nH]ccc12	9.1%	82 nM	–
Cc1nn(CC2CC2)nc1-c1ncnc2[nH]ccc12	44.8%	444 nM	IC50 [2]: 2440 nM
N#CC[C@H](C1CCCC1)n1cc(-c2ncnc3[nH]ccc23)cn1 [RUXOLITINIB]	–	–	IC50 (HEL 92.1.7 [4]): 14700 nM; growth inhibition (GI) (HEL 92.1.7 [5]): 55%; inhibition (INH) (HCC827): 16.6%
